Earlier results, collected in US20210069354A1, “METHOD OF TRANSPORTING AN AGENT ACROSS BLOOD-BRAIN, BLOOD-COCHLEAR OR BLOOD-CEREBROSPINAL FLUID BARRIER” (Oklahoma Medical Research Foundation, priority 2015, published 2021).

Conditions: normal brain

## O=C([O-])CN(CCN(CC(=O)[O-])CC(=O)O)CCN(CC(=O)[O-])CC(=O)O.[Gd+3] [Gd-DTPA, gadolinium diethylene triamine penta acetic acid]
  crossing of the BBB: does not cross the BBB
